Laboratory results taken from patent US11331299B2, “Medicinal use of serrulatane diterpenes” (The University of Sydney, priority 2016, dated 2022).
Read-outs that look alike come from different tables or passages of the source.

System: 280 human cancer cell lines
Assay: OncoPanel cell proliferation assay (10-day)
Assay type: cell-based
Settings: Homo sapiens; for GI50: read-out: Cell Count GI50; for IC50: read-out: Cell Count IC50; for EC50: read-out: Cell Count EC50
[1] = KHOS-240S, Soft Tissue - Osteosarcoma
[2] = ME-180, ME-180, Female GU - Ovary
[3] = MG-63, MG-63, Soft Tissue - Osteosarcoma
[4] = MHH-PREB-1, MHH-PREB-1, Leukemia
[5] = MIA PaCa-2, Mia PaCa-2, Pancreas
[6] = MS751, MS751, Female GU - Ovary
[7] = Malme-3M, MALME3M, Skin (Melanoma)

SMILES: CC(C)=CCC[C@H](CO)[C@@H]1CC[C@@H](C)c2c1cc(C)c(O)c2O [Compound 1, 7,8,18-trihydroxyserrulat-14-ene]
- GI50 [1]: 950 nM
- IC50 [1]: 950 nM
- EC50 (KLE, Female GU - Uterus): 3700 nM
- GI50 (KLE, Female GU - Uterus): 3560 nM
- IC50 (KLE, Female GU - Uterus): 3820 nM
- EC50 (KPL-1, KPL-1, Breast): 810 nM
- GI50 (KPL-1, KPL-1, Breast): 810 nM
- IC50 (KPL-1, KPL-1, Breast): 810 nM
- EC50 (KU812, KU812, Leukemia): 2810 nM
- GI50 (KU812, KU812, Leukemia): 2570 nM
- IC50 (KU812, KU812, Leukemia): 2810 nM
- EC50 (L-428, L-428, Lymphoma): 1080 nM
- GI50 (L-428, L-428, Lymphoma): 1080 nM
- IC50 (L-428, L-428, Lymphoma): 1090 nM
- EC50 (LNCaP, Prostate): 3900 nM
- GI50 (LNCaP, Prostate): 3470 nM
- IC50 (LNCaP, Prostate): 3900 nM
- EC50 (LS-123, LS123, Colon): 1130 nM
- GI50 (LS-123, LS123, Colon): 1030 nM
- IC50 (LS-123, LS123, Colon): 1160 nM
- EC50 (LS-411N, LS411N, Colon): 8720 nM
- GI50 (LS-411N, LS411N, Colon): 8510 nM
- IC50 (LS-411N, LS411N, Colon): 8720 nM
- EC50 (LS-1034, LS1034, Colon): 1870 nM
- GI50 (LS-1034, LS1034, Colon): 1830 nM
- IC50 (LS-1034, LS1034, Colon): 1870 nM
- EC50 (M059J, CNS - Glioma): 3090 nM
- GI50 (M059J, CNS - Glioma): 3020 nM
- IC50 (M059J, CNS - Glioma): 3090 nM
- EC50 (MC116, MC116, Lymphoma): 3790 nM
- GI50 (MC116, MC116, Lymphoma): 3780 nM
- IC50 (MC116, MC116, Lymphoma): 3790 nM
- EC50 (MC-IXC, CNS - Neuroblastoma): 4010 nM
- GI50 (MC-IXC, CNS - Neuroblastoma): 4000 nM
- IC50 (MC-IXC, CNS - Neuroblastoma): 4010 nM
- EC50 (MCF7, MCF7, Breast): 1370 nM
- GI50 (MCF7, MCF7, Breast): 1350 nM
- IC50 (MCF7, MCF7, Breast): 1370 nM
- EC50 (MDA-MB-231, MDA MB 231, Breast): 1470 nM
- GI50 (MDA-MB-231, MDA MB 231, Breast): 1470 nM
- IC50 (MDA-MB-231, MDA MB 231, Breast): 1480 nM
- EC50 (MDA-MB-436, MDA-MB-436, Breast): 2680 nM
- GI50 (MDA-MB-436, MDA-MB-436, Breast): 2670 nM
- IC50 (MDA-MB-436, MDA-MB-436, Breast): 2690 nM
- EC50 (MDA-MB-453, MDA MB 453, Breast): 780 nM
- GI50 (MDA-MB-453, MDA MB 453, Breast): 770 nM
- IC50 (MDA-MB-453, MDA MB 453, Breast): 780 nM
- EC50 (MDA-MB-468, MDA MB 468, Breast): 2750 nM
- GI50 (MDA-MB-468, MDA MB 468, Breast): 2740 nM
- IC50 (MDA-MB-468, MDA MB 468, Breast): 2760 nM
- EC50 [2]: 2250 nM
- GI50 [2]: 2210 nM
- IC50 [2]: 2260 nM
- EC50 (MEG-01, MEG01, Leukemia): 7350 nM
- GI50 (MEG-01, MEG01, Leukemia): 7220 nM
- IC50 (MEG-01, MEG01, Leukemia): 7350 nM
- EC50 (MES-SA, Soft Tissue - Sarcoma): 1230 nM
- GI50 (MES-SA, Soft Tissue - Sarcoma): 1220 nM
- IC50 (MES-SA, Soft Tissue - Sarcoma): 1230 nM
- EC50 [3]: 9240 nM
- GI50 [3]: 9160 nM
- IC50 [3]: 9240 nM
- EC50 [4]: 6170 nM
- GI50 [4]: 6170 nM
- IC50 [4]: 6170 nM
- EC50 [5]: 2970 nM
- GI50 [5]: 2970 nM
- IC50 [5]: 2970 nM
- EC50 (MOLT-3, MOLT-3, Leukemia): 2130 nM
- GI50 (MOLT-3, MOLT-3, Leukemia): 2110 nM
- IC50 (MOLT-3, MOLT-3, Leukemia): 2130 nM
- EC50 (MOLT-16, MOLT-16, Leukemia): 1840 nM
- GI50 (MOLT-16, MOLT-16, Leukemia): 1840 nM
- IC50 (MOLT-16, MOLT-16, Leukemia): 1840 nM
- EC50 [6]: 2230 nM
- GI50 [6]: 2210 nM
- IC50 [6]: 2230 nM
- EC50 (MT-3, Colon): 3670 nM
- GI50 (MT-3, Colon): 3660 nM
- IC50 (MT-3, Colon): 3670 nM
- EC50 (MV4-11, MV-4-11, Leukemia): 3580 nM
- GI50 (MV4-11, MV-4-11, Leukemia): 3570 nM
- IC50 (MV4-11, MV-4-11, Leukemia): 3580 nM
- EC50 (MX1, Leukemia): 1290 nM
- GI50 (MX1, Leukemia): 1290 nM
- IC50 (MX1, Leukemia): 1290 nM
- EC50 [7]: 1790 nM
- GI50 [7]: 1660 nM
- IC50 [7]: 1790 nM
- EC50 (MeWo, Skin (Melanoma)): 1320 nM
- GI50 (MeWo, Skin (Melanoma)): 1310 nM
- IC50 (MeWo, Skin (Melanoma)): 1320 nM
- EC50 (NALM-6, NALM-6, Leukemia): 1810 nM
- GI50 (NALM-6, NALM-6, Leukemia): 1810 nM
- IC50 (NALM-6, NALM-6, Leukemia): 1810 nM
- EC50 (NAMALWA, Lymphoma): 3390 nM
- GI50 (NAMALWA, Lymphoma): 3390 nM
- IC50 (NAMALWA, Lymphoma): 3390 nM
- EC50 (NCI-H69, NCI-H69, Lung - SCLC): 6300 nM
- GI50 (NCI-H69, NCI-H69, Lung - SCLC): 5840 nM
- IC50 (NCI-H69, NCI-H69, Lung - SCLC): 6440 nM
